Assays:
[1] = test system: B-CPAP (Thyroid Gland Carcinoma); experiment: combination Emax (second highest fraction inhibited in the dose matrix, 72 h); higher = more inhibition; extreme values may be limits of the assay
Outline: (§1)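 Cell lines in DMEM/F12 or RPMI with 10% FBS were plated in 1536-well plates, held 24 hours at 37°C, 5% CO2, then given two-drug dose matrices for 72 hours (DMSO typically 0.2%). Viability was read by CellTiter-Glo 2.0 luminescence and scaled as inhibition from 0 (vehicle wells) to 1 (blank wells). Combination Emax is the second-highest inhibition in the matrix; Bliss excess is observed combination effect minus expected EA + EB − EA·EB, EA and EB being single-agent effects.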

[2] = test system: SNU-5 (Gastric Carcinoma); experiment: as above
Outline: as §1

[3] = test system: MFE-296 (Endometrial Carcinoma); experiment: as above
Outline: as §1

[4] = test system: HCC1806 (Breast Carcinoma); experiment: as above
Outline: as §1

[5] = test system: OVCA420 (Ovarian Carcinoma); experiment: as above
Outline: as §1

[6] = test system: KURAMOCHI (Ovarian Carcinoma); experiment: Bliss excess, mean over the matrix (fraction); higher = more synergy
Outline: as §1

[7] = test system: NCI-H2085 (Non-Small Cell Lung Carcinoma); experiment: as above
Outline: as §1

[8] = test system: Ramos-2G6-4C10 (Burkitt's Lymphoma); experiment: as above
Outline: as §1

[9] = test system: HO-1-N-1 (Oral Cavity Carcinoma); experiment: as above
Outline: as §1

[10] = test system: B-CPAP (Thyroid Gland Carcinoma); experiment: as above
Outline: as §1

[11] = test system: HCC-78 (Lung Adenocarcinoma); experiment: as above
Outline: as §1

T98G (Glioblastoma) = experiment: as above
Outline: as §1

[12] = test system: LB831-BLC (Bladder Carcinoma); experiment: as above
Outline: as §1

[13] = test system: SNU-5 (Gastric Carcinoma); experiment: as above
Outline: as §1

[14] = test system: MFE-296 (Endometrial Carcinoma); experiment: as above
Outline: as §1

[15] = test system: HCC1806 (Breast Carcinoma); experiment: as above
Outline: as §1

HOS (Osteosarcoma) = experiment: as above
Outline: as §1

[16] = test system: OVCA420 (Ovarian Carcinoma); experiment: as above
Outline: as §1
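Wherever Bliss excess, mean over the matrix is given: after 72 h of two-drug dosing.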

Structure (SMILES) | combination Emax [1] | combination Emax [2] | combination Emax [3] | combination Emax [4] | combination Emax [5] | Bliss excess [6] | Bliss excess [7] | Bliss excess [8] | Bliss excess [9] | Bliss excess [10] | Bliss excess [11] | Bliss excess (T98G (Glioblastoma)) | Bliss excess [12] | Bliss excess [13] | Bliss excess [14] | Bliss excess [15] | Bliss excess (HOS (Osteosarcoma)) | Bliss excess [16]
CS(=O)(=O)CCNCc1ccc(-c2ccc3ncnc(Nc4ccc(OCc5cccc(F)c5)c(Cl)c4)c3c2)o1 [Lapatinib] + NC1(c2ccc(-c3nc4ccn5c(=O)[nH]nc5c4cc3-c3ccccc3)cc2)CCC1 [MK-2206] (first compound max 10 µM, 7x7, partner max 10 µM) | 0.909 | 0.387 | 0.296 | 0.954 | 0.884 | 0.0264 | 0.0463 | 0.0215 | 0.0213 | 0.0102 | -0.0464 | 0.0128 | -0.0044 | 0.0404 | -0.026 | 0.0574 | -0.0218 | 0.0085
N#Cc1cnc(Nc2cc(NC[C@H]3CNCCO3)c(C(F)(F)F)cn2)cn1 [SRA737] + Nc1ccn([C@@H]2O[C@H](CO)[C@@H](O)C2(F)F)c(=O)n1 [Gemcitabine] (first compound max 10 µM, 7x7, partner max 0.3 µM) | – | – | – | – | – | -0.0079 | -0.0192 | 0.149 | 0.015 | – | 0.0509 | 0.0323 | 0.0477 | – | – | – | 0.114 | –
Cc1c2c(nn1C)CSCc1cc(n(C)n1)CSc1cc(c3ccccc3c1)OCCCc1c(C(=O)O)n(C)c3c-2c(Cl)ccc13 [AZD5991] + CC(=O)O[C@H]1C(=O)[C@@]2(C)[C@H]([C@H](OC(=O)c3ccccc3)[C@]3(O)C[C@H](OC(=O)[C@H](O)[C@@H](NC(=O)c4ccccc4)c4ccccc4)C(C)=C1C3(C)C)[C@]1(OC(C)=O)CO[C@@H]1C[C@@H]2O [Paclitaxel] (first compound max 1 µM, 7x7, partner max 3 µM) | – | – | – | – | – | 0.0479 | 0.0904 | -0.104 | 0.0062 | – | 0.11 | -0.0798 | 0.0261 | – | – | – | 0.103 | –
C[C@@H](Nc1cc(F)cc(F)c1)c1cc(C(=O)N(C)C)cc2c(=O)cc(N3CCOCC3)oc12 [AZD8186] + C1CN(CCC1(C(=O)N[C@@H](CCO)C2=CC=C(C=C2)Cl)N)C3=NC=NC4=C3C=CN4 [AZD5363] (first compound max 10 µM, 7x7, partner max 10 µM) | – | – | – | – | – | -0.037 | -0.045 | -0.0898 | 0.0627 | – | 0.0408 | 0.0381 | -0.0398 | – | – | – | -0.0447 | –
CN(CCO)CC[C@H](CSc1ccccc1)Nc1ccc(S(=O)(=O)NC(=O)c2ccc(N3CCC([C@@H](O)c4ccccc4-c4ccc(Cl)cc4)CC3)cc2)cc1S(=O)(=O)C(F)(F)F [AZD4320] + CS(=O)(=O)CCNCc1ccc(-c2ccc3ncnc(Nc4ccc(OCc5cccc(F)c5)c(Cl)c4)c3c2)o1 [Lapatinib] (first compound max 1 µM, 7x7, partner max 10 µM) | – | – | – | – | – | 0.0392 | 0.019 | 0.117 | 0.0439 | – | -0.0248 | 0.0029 | 0.0245 | – | – | – | -0.0381 | –
O=C(c1cc(Cc2n[nH]c(=O)c3ccccc23)ccc1F)N1CCN(C(=O)C2CC2)CC1 [Olaparib] + CN(CC[C@H](CSC1=CC=CC=C1)NC2=C(C=C(C=C2)S(=O)(=O)NC(=O)C3=CC=C(C=C3)N4CCC(CC4)[C@H](C5=CC=CC=C5C6=CC=C(C=C6)Cl)O)S(=O)(=O)C(F)(F)F)CCO [AZD4320] (first compound max 10 µM, 7x7, partner max 1 µM) | – | – | – | – | – | -0.0414 | -0.0134 | -0.0184 | 0.0106 | – | -0.016 | 0.0008 | -0.0076 | – | – | – | 0.0192 | –
CC1(C)CCC(CN2CCN(c3ccc(C(=O)NS(=O)(=O)c4ccc(NCC5CCOCC5)c([N+](=O)[O-])c4)c(Oc4cnc5[nH]ccc5c4)c3)CC2)=C(c2ccc(Cl)cc2)C1 [Venetoclax] + CS(=O)(=O)CCNCc1ccc(-c2ccc3ncnc(Nc4ccc(OCc5cccc(F)c5)c(Cl)c4)c3c2)o1 [Lapatinib] (first compound max 1 µM, 7x7, partner max 10 µM) | – | – | – | – | – | -0.0415 | -0.0267 | 0.0377 | -0.0212 | – | -0.0248 | -0.0049 | -0.0597 | – | – | – | -0.087 | –
C[C@@H](Oc1cc(-c2cnn(C3CCNCC3)c2)cnc1N)c1c(Cl)ccc(F)c1Cl [Crizotinib] + CC1=C(C(=CC=C1)Cl)NC(=O)C2=CN=C(S2)NC3=CC(=NC(=N3)C)N4CCN(CC4)CCO [Dasatinib] (first compound max 10 µM, 7x7, partner max 2 µM) | – | – | – | – | – | -0.0038 | 0.0551 | -0.0216 | 0.0921 | – | 0.0887 | 0.0943 | 0.0269 | – | – | – | -0.0153 | –
C=CCn1c(=O)c2cnc(Nc3ccc(N4CCN(C)CC4)cc3)nc2n1-c1cccc(C(C)(C)O)n1 [AZD1775] + CCc1c2c(nc3ccc(O)cc13)-c1cc3c(c(=O)n1C2)COC(=O)[C@]3(O)CC [SN-38] (first compound max 1 µM, partner max 0.3 µM) | – | – | – | – | – | -0.0053 | -0.0202 | 0.0943 | -0.0092 | – | 0.0002 | 0.0057 | 0.0518 | – | – | – | -0.0934 | –
C[C@@H]1COCCN1c1cc(C2([S@](C)(=N)=O)CC2)nc(-c2ccnc3[nH]ccc23)n1 [AZD6738] + Nc1ccn([C@@H]2O[C@H](CO)[C@@H](O)C2(F)F)c(=O)n1 [Gemcitabine] (first compound max 10 µM, 7x7, partner max 0.3 µM) | – | – | – | – | – | 0.0761 | 0.07 | 0.15 | 0.0528 | – | 0.067 | -0.0284 | 0.113 | – | – | – | 0.134 | –

— the supplement of paper PMC11061612
